PubChem BioAssay AID1963439 (Molecular Pharmacology Branch, DTP, NCI, 2024)
pIC50: −log10 of the molar value. Values joined by “and” are separate entries in the source; they are usually repeats but may differ in a detail not shown here. Identical values can stand only once.

System: NCI-H196 complex spheroids with HUVEC/MSC, growth % T/C
Assay: Anticancer human tumor NCI-H196 cell line growth inhibition [Asc];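 further: spheroids exposed to compound for 7 days before measurement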;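 on viability, T/C: 100% = DMSO vehicle control wells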
Details: for viability, T/C: stronger effect = lower value
Procedure, shortened: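 Stromal components (HUVEC and hMSC) are co-assembled with the cancer cells into multicellular spheroids. Drugs are then added singly or paired, at concentrations falling by half-log increments from a clinically achievable maximum, capped at 10 microM without known Cmax.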

[1] = curve of first compound, second compound 0.03 µM
[2] = curve of first compound, second compound 0.0949 µM
[3] = curve of first compound, second compound 0.3 µM
[4] = curve of first compound, second compound 0.949 µM
[5] = curve of first compound, second compound 3 µM
[6] = second compound 0.03 µM, first compound 0.000316 µM
[7] = second compound 0.03 µM, first compound 0.001 µM
[8] = second compound 0.03 µM, first compound 0.00316 µM
[9] = second compound 0.03 µM, first compound 0.01 µM
[10] = second compound 0.03 µM, first compound 0.0316 µM
[11] = second compound 0.03 µM, first compound 0.1 µM
[12] = second compound 0.0949 µM, first compound 0.000316 µM
[13] = second compound 0.0949 µM, first compound 0.001 µM
[14] = second compound 0.0949 µM, first compound 0.00316 µM
[15] = second compound 0.0949 µM, first compound 0.01 µM
[16] = second compound 0.0949 µM, first compound 0.0316 µM
[17] = second compound 0.0949 µM, first compound 0.1 µM
[18] = second compound 0.3 µM, first compound 0.000316 µM
[19] = second compound 0.3 µM, first compound 0.001 µM
[20] = second compound 0.3 µM, first compound 0.00316 µM
[21] = second compound 0.3 µM, first compound 0.01 µM
[22] = second compound 0.3 µM, first compound 0.0316 µM
[23] = second compound 0.3 µM, first compound 0.1 µM
[24] = second compound 0.949 µM, first compound 0.000316 µM
[25] = second compound 0.949 µM, first compound 0.001 µM
[26] = second compound 0.949 µM, first compound 0.00316 µM
[27] = second compound 0.949 µM, first compound 0.01 µM
[28] = second compound 0.949 µM, first compound 0.0316 µM
[29] = second compound 0.949 µM, first compound 0.1 µM
[30] = second compound 3 µM, first compound 0.000316 µM
[31] = second compound 3 µM, first compound 0.001 µM
[32] = second compound 3 µM, first compound 0.00316 µM
[33] = second compound 3 µM, first compound 0.01 µM
[34] = second compound 3 µM, first compound 0.0316 µM
[35] = second compound 3 µM, first compound 0.1 µM
[36] = curve of first compound, second compound 0.1 µM
[37] = curve of first compound, second compound 0.316 µM
[38] = curve of first compound, second compound 1 µM
[39] = curve of first compound, second compound 3.16 µM
[40] = curve of first compound, second compound 10 µM
[41] = second compound 0.1 µM, first compound 0.00316 µM
[42] = second compound 0.1 µM, first compound 0.01 µM
[43] = second compound 0.1 µM, first compound 0.0316 µM
[44] = second compound 0.1 µM, first compound 0.1 µM
[45] = second compound 0.1 µM, first compound 0.316 µM
[46] = second compound 0.1 µM, first compound 1 µM
[47] = second compound 0.316 µM, first compound 0.00316 µM
[48] = second compound 0.316 µM, first compound 0.01 µM
[49] = second compound 0.316 µM, first compound 0.0316 µM
[50] = second compound 0.316 µM, first compound 0.1 µM
[51] = second compound 0.316 µM, first compound 0.316 µM
[52] = second compound 0.316 µM, first compound 1 µM
[53] = second compound 1 µM, first compound 0.00316 µM
[54] = second compound 1 µM, first compound 0.01 µM
[55] = second compound 1 µM, first compound 0.0316 µM
[56] = second compound 1 µM, first compound 0.1 µM
[57] = second compound 1 µM, first compound 0.316 µM
[58] = second compound 1 µM, first compound 1 µM
[59] = second compound 3.16 µM, first compound 0.00316 µM
[60] = second compound 3.16 µM, first compound 0.01 µM
[61] = second compound 3.16 µM, first compound 0.0316 µM
[62] = second compound 3.16 µM, first compound 0.1 µM
[63] = second compound 3.16 µM, first compound 0.316 µM
[64] = second compound 3.16 µM, first compound 1 µM
[65] = second compound 10 µM, first compound 0.00316 µM
[66] = second compound 10 µM, first compound 0.01 µM
[67] = second compound 10 µM, first compound 0.0316 µM
[68] = second compound 10 µM, first compound 0.1 µM
[69] = second compound 10 µM, first compound 0.316 µM
[70] = second compound 10 µM, first compound 1 µM

NC1CCC(NC2CC2c2ccccc2)CC1 (centres undefined) + CCN1C(C(=O)NC23CCC(C(=O)O)(CC2)CC3)C(c2cccc(Cl)c2F)C2(C(=O)Nc3cc(Cl)ccc32)C12CCCCC2
pIC50 [1]: < 7.00 | pIC50 [2]: < 7.00 | pIC50 [3]: < 7.00 | pIC50 [4]: < 7.00 | pIC50 [5]: < 7.00 | viability, T/C [6]: 109% | viability, T/C [7]: 98% | viability, T/C [8]: 109% | viability, T/C [9]: 110% | viability, T/C [10]: 105% | viability, T/C [11]: 96.7% | viability, T/C [12]: 102% | viability, T/C [13]: 108% | viability, T/C [14]: 111% | viability, T/C [15]: 103% | viability, T/C [16]: 100% | viability, T/C [17]: 105% | viability, T/C [18]: 118% | viability, T/C [19]: 117% | viability, T/C [20]: 108% | viability, T/C [21]: 105% | viability, T/C [22]: 97.8% | viability, T/C [23]: 119% | viability, T/C [24]: 111% | viability, T/C [25]: 121% | viability, T/C [26]: 112% | viability, T/C [27]: 114% | viability, T/C [28]: 115% | viability, T/C [29]: 119% | viability, T/C [30]: 119% | viability, T/C [31]: 123% | viability, T/C [32]: 112% | viability, T/C [33]: 104% | viability, T/C [34]: 115% | viability, T/C [35]: 112%

C=C(F)C(=O)N1CCN(c2nc(OCC3CCCN3C)nc3c2CCN(c2cccc4cccc(Cl)c24)C3)CC1CC#N (centres undefined)
viability, T/C (compound 0.0316 µM): 95.2% and 99.4% and 108% | viability, T/C (compound 0.1 µM): 109% and 99.9% and 101% | viability, T/C (compound 0.316 µM): 100% and 102% and 113% | viability, T/C (compound 1 µM): 96.1% and 103% and 109% | viability, T/C (compound 3.16 µM): 94.2% and 103% and 111% | pIC50 (curve of compound): < 5.00 and 5.23

O=C(c1ccc(F)c(F)c1Nc1ccc(I)cc1F)N1CC(O)([C@@H]2CCCCN2)C1 + Cc1c(S(C)(=O)=O)c(-c2cc(F)cc(N3CCN(c4ccc(NS(=O)(=O)c5ccc(NC(CCN6CCC(C(=O)OCCCP(=O)(O)O)CC6)CSc6ccccc6)c(S(=O)(=O)C(F)(F)F)c5)cc4)CC3)c2)c(-c2ccc(Cl)cc2)n1C(C)C
pIC50 [36]: < 6.00 | pIC50 [37]: < 6.00 | pIC50 [38]: < 6.00 | pIC50 [39]: < 6.00 | pIC50 [40]: < 6.00 | viability, T/C [41]: 103% | viability, T/C [42]: 104% | viability, T/C [43]: 108% | viability, T/C [44]: 102% | viability, T/C [45]: 117% | viability, T/C [46]: 125% | viability, T/C [47]: 99% | viability, T/C [48]: 96.1% | viability, T/C [49]: 88.6% | viability, T/C [50]: 97.4% | viability, T/C [51]: 105% | viability, T/C [52]: 117% | viability, T/C [53]: 84.9% | viability, T/C [54]: 89.1% | viability, T/C [55]: 93.9% | viability, T/C [56]: 106% | viability, T/C [57]: 108% | viability, T/C [58]: 117% | viability, T/C [59]: 79.8% | viability, T/C [60]: 87.3% | viability, T/C [61]: 87.8% | viability, T/C [62]: 85.4% | viability, T/C [63]: 102% | viability, T/C [64]: 106% | viability, T/C [65]: 74.5% | viability, T/C [66]: 85.8% | viability, T/C [67]: 81.2% | viability, T/C [68]: 83% | viability, T/C [69]: 90.6% | viability, T/C [70]: 97%

CCN1CCN(Cc2ccc(Nc3ncc(F)c(-c4cc(F)c5nc(C)n(C(C)C)c5c4)n3)nc2)CC1 + Cc1c(S(C)(=O)=O)c(-c2cc(F)cc(N3CCN(c4ccc(NS(=O)(=O)c5ccc(NC(CCN6CCC(C(=O)OCCCP(=O)(O)O)CC6)CSc6ccccc6)c(S(=O)(=O)C(F)(F)F)c5)cc4)CC3)c2)c(-c2ccc(Cl)cc2)n1C(C)C
pIC50 [36]: < 6.00 | pIC50 [37]: < 6.00 | pIC50 [38]: < 6.00 | pIC50 [39]: < 6.00 | pIC50 [40]: < 6.00 | viability, T/C [41]: 101% | viability, T/C [42]: 95.4% | viability, T/C [43]: 101% | viability, T/C [44]: 104% | viability, T/C [45]: 102% | viability, T/C [46]: 109% | viability, T/C [47]: 94.1% | viability, T/C [48]: 102% | viability, T/C [49]: 92.6% | viability, T/C [50]: 104% | viability, T/C [51]: 104% | viability, T/C [52]: 113% | viability, T/C [53]: 92.2% | viability, T/C [54]: 91.7% | viability, T/C [55]: 92.2% | viability, T/C [56]: 102% | viability, T/C [57]: 104% | viability, T/C [58]: 105% | viability, T/C [59]: 90.2% | viability, T/C [60]: 88.8% | viability, T/C [61]: 80.1% | viability, T/C [62]: 85.3% | viability, T/C [63]: 93.1% | viability, T/C [64]: 86% | viability, T/C [65]: 77.2% | viability, T/C [66]: 76.2% | viability, T/C [67]: 81.4% | viability, T/C [68]: 83.6% | viability, T/C [69]: 86.2% | viability, T/C [70]: 80.8%

Cn1ncnc1[C@H]1c2n[nH]c(=O)c3cc(F)cc(c23)N[C@@H]1c1ccc(F)cc1 + CCN1C(C(=O)NC23CCC(C(=O)O)(CC2)CC3)C(c2cccc(Cl)c2F)C2(C(=O)Nc3cc(Cl)ccc32)C12CCCCC2
pIC50 [1]: < 7.00 | pIC50 [2]: < 7.00 | pIC50 [3]: < 7.00 | pIC50 [4]: < 7.00 | pIC50 [5]: < 7.00 | viability, T/C [6]: 107% | viability, T/C [7]: 109% | viability, T/C [8]: 107% | viability, T/C [9]: 108% | viability, T/C [10]: 107% | viability, T/C [11]: 104% | viability, T/C [12]: 118% | viability, T/C [13]: 125% | viability, T/C [14]: 114% | viability, T/C [15]: 102% | viability, T/C [16]: 114% | viability, T/C [17]: 109% | viability, T/C [18]: 118% | viability, T/C [19]: 128% | viability, T/C [20]: 119% | viability, T/C [21]: 121% | viability, T/C [22]: 113% | viability, T/C [23]: 112% | viability, T/C [24]: 139% | viability, T/C [25]: 138% | viability, T/C [26]: 120% | viability, T/C [27]: 118% | viability, T/C [28]: 112% | viability, T/C [29]: 126% | viability, T/C [30]: 124% | viability, T/C [31]: 136% | viability, T/C [32]: 132% | viability, T/C [33]: 129% | viability, T/C [34]: 131% | viability, T/C [35]: 121%

C=CC(=O)N1CCN(c2nc(=O)n(-c3c(C)ccnc3C(C)C)c3nc(-c4c(O)cccc4F)c(F)cc23)C(C)C1 (centres undefined)
viability, T/C (compound 0.0316 µM): 92% and 102% and 106% | viability, T/C (compound 0.1 µM): 94.8% and 110% and 103% | viability, T/C (compound 0.316 µM): 103% and 93.4% and 109% | viability, T/C (compound 1 µM): 99.8% and 106% and 112% | viability, T/C (compound 3.16 µM): 97.6% and 103% (2×) | viability, T/C (compound 10 µM): 95.1% and 114% and 91.3% | pIC50 (curve of compound): < 5.00

Cc1c(S(C)(=O)=O)c(-c2cc(F)cc(N3CCN(c4ccc(NS(=O)(=O)c5ccc(NC(CCN6CCC(C(=O)OCCCP(=O)(O)O)CC6)CSc6ccccc6)c(S(=O)(=O)C(F)(F)F)c5)cc4)CC3)c2)c(-c2ccc(Cl)cc2)n1C(C)C (centres undefined)
viability, T/C (compound 0.1 µM): 94.5% [middle of 14 runs] | viability, T/C (compound 0.316 µM): 92.9% [middle of 14 runs] | viability, T/C (compound 1 µM): 91.4% [middle of 14 runs] | viability, T/C (compound 3.16 µM): 82.2% [middle of 14 runs] | viability, T/C (compound 10 µM): 75.3% [middle of 14 runs] | pIC50 (compound alone, run of 09/27/2022): < 5.00
